Assay results taken from patent publication EP0091519A1, “Topical acylaminophenols” (Johnson & Johnson Products Inc., priority 1982, dated 1983).

Legend:
[1] = test system: arachidonic acid-induced epidermal proliferation; experiment: Arachidonic acid-induced epidermal proliferation in guinea pig ear skin (3H-thymidine labelling, liquid scintillation counting); type: in vivo; details: for cpm S.E.: 25 µl topical on ear once daily for four days after 1% AA, mean ± S.E.; for inhibition in vivo at 1 %: Cavia porcellus, 1% drug topical, versus contralateral vehicle-treated ear, * statistically significant, + not significant due to variability, read-out: % Re-duction (cpm, proliferation); for effect on AA-induced proliferation (in words): topical application, 1% unless otherwise stated
Protocol: (§1) The effect of selected compositions on cutaneous inflammation caused by topical application of arachidonic acid was evaluated. In addition to inflammation, the proliferative response of the epidermis treated with arachidonic acid and the compositions was evaluated. Fourteen acylaminophenols were studied. The drugs were dissolved in propylene glycol plus ethanol (30:70) and were used at 1% concentrations unless otherwise stated. Fourteen groups of five guinea pigs each served as the experimental subjects. The dorsal skin of both ears was treated once daily for four days (9:00 am) with 25 µl 1% solution of AA in propylene glycol/ethanol (30/70). Immediately after this application, one ear of each guinea pig was randomly chosen for application of 25 µl of the test compound, while the contralateral ear received the vehicle, alone. During the four-day experimental period, DNA synthesized was labeled by continuous administration of a radioactive'precursor, ^3H-thymidine (3 i.p. injections/day of 10µCi each). Erythema developing in response to topical AA was measured daily on a subjective scale of 0 to 3; where 0 = none,1= mild, 2 = moderate, and 3 = intense. The average erythema scores were plotted as a function of time, and areas under the response curves were determined for expression of total erythema. On the fifth day, animals were killed and six mm diameter circular samples of dorsal skin from the central portion of the treatment sites were harvested and solubilized in NCS® solubilizer. These tissue solutions were acidified and a simple fluor (diphenyloxazole in toluene) was added for determination of radioactivity by liquid scintillation counting. Radioactivity expressed as counts-per-minute (cpm) correlate with the amount of proliferative activity in the epidermis.

[2] = test system: arachidonic acid-induced erythema; experiment: Arachidonic acid-induced erythema in guinea pig ear skin (subjective score 0 to 3, area under response curve); type: in vivo; details: for Total Erythema: area under curve of average erythema score (0 to 3) over four days; for inhibition in vivo at 1 %: Cavia porcellus, versus contralateral vehicle-treated ear, read-out: % Re-duction (Total Erythema); for effect on AA-induced erythema (in words): topical application, 1% unless otherwise stated
Protocol: as §1

[3] = 1% drug in propylene glycol/ethanol (30:70), 6 mm skin sample on fifth day

| SMILES | cpm S.E. [1, 3] [cpm] | inhibition in vivo at 1 % [1] [%] | effect on AA-induced proliferation (in words) [1] | Total Erythema ([2]; 1% drug topical) | inhibition in vivo at 1 % ([2]; 1% drug topical) [%] | effect on AA-induced erythema (in words) [2] | cpm S.E. ([1]; 0.56% drug in propylene glycol/ethanol (30:70)) [cpm] | Total Erythema ([2]; 0.56% drug topical) |
| --- | --- | --- | --- | --- | --- | --- | --- | --- |
| O=C(Nc1ccc(O)cc1)c1ccccc1O | 1532± 91 | 23.3 | showed activity | 3.2 | 41.8 | showed activity | – | – |
| O=C(Nc1ccc(O)cc1)c1ccccc1 [4-benzoylaminophenol, reference compound] | 2214±316 | 4.2 | inactive | 3.8 | 20.8 | inactive | – | – |
| CCCC(=O)Nc1ccc(O)cc1 [4-n-butyroylaminophenol, reference compound] | 2680±360 | 27.8 | significantly inhibited | 4.6 | 4.2 | without effect | – | – |
| CCCCCCCCCC(=O)Nc1ccc(O)cc1 [4-n-decanoylaminophenol] | 1311± 48 | 37.5 | good activity | 2.0 | 47.4 | good activity | – | – |
| CCCCCCCCCCCC(=O)Nc1ccc(O)cc1 [4-n-dodecanoylaminophenol] | 2487±368 | 29 | good activity | 3.8 | 29 | good activity | – | – |
| CCCCCCC(=O)Nc1ccc(O)cc1 [4-n-heptanoylaminophenol] | 1435± 77 | 27.3 | good activity | 1.8 | 47 | good activity | – | – |
| CCCCCCCCCCCCCCCC(=O)Nc1ccc(O)cc1 [4-n-hexadecanoylaminophenol, reference compound] | – | – | without substantial effect | – | – | without substantial effect | 3275±463 | 4.8 |
| CCCCCC(=O)Nc1ccc(O)cc1 [4-n-hexanoylaminophenol] | 1488±104 | 28.3 | good activity | 1.9 | 50 | good activity | – | – |
| CCCCCCCCC(=O)Nc1ccc(O)cc1 [4-n-nonanoylaminophenol] | 1472±135 | 20.9 | good activity | 2.1 | 34.4 | good activity | – | – |
| CCCCCCCC(=O)Nc1ccc(O)cc1 [4-n-octanoylaminophenol] | 1589±361 | 39.1 | good activity | 2.7 | 49 | good activity | – | – |
| CCCCCCCCCCCCCC(=O)Nc1ccc(O)cc1 [4-n-tetradecanoylaminophenol, reference compound] | 1681±296 | 15.1 | without substantial effect | 3.8 | 0 | without substantial effect | – | – |
| CCCCCCCCCCC(=O)Nc1ccc(O)cc1 [4-n-undecanoylaminophenol] | 1380±205 | 37.3 | good activity | 2.1 | 38.2 | good activity | – | – |
| CCC(=O)Nc1ccc(O)cc1 [4-propionylaminophenol, reference compound] | 1777±251 | 2.6 | without substantial effect | 5.5 | -14.6 | without substantial effect | – | – |
| CC(=O)Nc1ccc(O)cc1 [Acetaminophen, acetamidophenol, reference compound] | 3140±346 | 8 | no significant effect | 5.2 | 0 | no significant effect | – | – |
